{"source": "patent US8802597B2", "about": "“Herbicidal pyrimidines” (E I du Pont de Nemours and Company, priority 2003, dated 2014)", "assay_in_all_cases": "Test C pre/postemergence", "format_in_all_cases": "in vivo", "key": {"[1]": {"tested_on": "bermudagrass (Cynodon dactylon)", "details": "Cynodon dactylon; for pest or weed control at 62 g/ha: 62 g ai/ha; for pest or weed control at 125 g/ha: 125 g ai/ha; for pest or weed control at 125 g/ha / pest or weed control at 250 g/ha / pest or weed control at 500 g/ha: scale 0 to 100; for pest or weed control at 250 g/ha: 250 g ai/ha; for pest or weed control at 500 g/ha: 500 g ai/ha", "how_it_was_run": "(§1)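 Applications: preemergence onto seeded soil and postemergence onto 1- to 4-leaf seedlings, compound carried in non-phytotoxic solvent plus surfactant. Kept in greenhouse 12 to 14 days. Scored visually relative to untreated controls, 0 (no effect) to 100 (complete control).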"}, "[2]": {"tested_on": "johnsongrass (Sorghum halepense)", "details": "Sorghum halepense; for pest or weed control at 62 g/ha: 62 g ai/ha; for pest or weed control at 125 g/ha: 125 g ai/ha; for pest or weed control at 250 g/ha: 250 g ai/ha; for pest or weed control at 500 g/ha: 500 g ai/ha", "how_it_was_run": "as §1"}, "[3]": {"tested_on": "woolly cupgrass (Eriochloa villosa)", "details": "Eriochloa villosa; for pest or weed control at 62 g/ha: 62 g ai/ha; for pest or weed control at 125 g/ha: 125 g ai/ha; for pest or weed control at 250 g/ha: 250 g ai/ha; for pest or weed control at 500 g/ha: 500 g ai/ha", "how_it_was_run": "as §1"}, "[4]": {"tested_on": "morningglory (Ipomoea coccinea)", "details": "Ipomoea; for pest or weed control at 62 g/ha: 62 g ai/ha; for pest or weed control at 125 g/ha: 125 g ai/ha; for pest or weed control at 250 g/ha: 250 g ai/ha; for pest or weed control at 500 g/ha: 500 g ai/ha", "how_it_was_run": "as §1"}, "[5]": {"tested_on": "cocklebur (Xanthium strumarium)", "details": "Xanthium strumarium; for pest or weed control at 62 g/ha: 62 g ai/ha; for pest or weed control at 125 g/ha: 125 g ai/ha; for pest or weed control at 250 g/ha: 250 g ai/ha; for pest or weed control at 500 g/ha: 500 g ai/ha", "how_it_was_run": "as §1"}, "corn (Zea mays)": {"tested_on": "corn (Zea mays)", "details": "Zea mays, post-emergence, Postemergence", "how_it_was_run": "as §1"}, "[6]": {"details": "post-emergence, Postemergence, read-out: Plant response rating, Bermudagrass"}, "[7]": {"details": "pre-emergence, Preemergence, read-out: Plant response rating, Bermudagrass"}, "[8]": {"details": "post-emergence, Postemergence, scale 0 to 100 (0 no effect, 100 complete control), read-out: Johnsongrass plant response rating"}, "[9]": {"details": "post-emergence, Postemergence, scale 0 to 100, read-out: Plant response rating, Johnsongrass"}, "[10]": {"details": "pre-emergence, Preemergence, scale 0 to 100, read-out: Plant response rating, Johnsongrass"}, "[11]": {"details": "post-emergence, Postemergence, scale 0 to 100 (0 no effect, 100 complete control), read-out: Cupgrass, Woolly plant response rating"}, "[12]": {"details": "post-emergence, Postemergence, scale 0 to 100, read-out: Plant response rating, Cupgrass, Woolly"}, "[13]": {"details": "pre-emergence, Preemergence, scale 0 to 100, read-out: Plant response rating, Cupgrass, Woolly"}, "[14]": {"details": "post-emergence, Postemergence, scale 0 to 100 (0 no effect, 100 complete control), read-out: Morningglory plant response rating"}, "[15]": {"details": "post-emergence, Postemergence, scale 0 to 100, read-out: Plant response rating, Morningglory"}, "[16]": {"details": "pre-emergence, Preemergence, scale 0 to 100, read-out: Plant response rating, Morningglory"}, "[17]": {"details": "post-emergence, Postemergence, scale 0 to 100 (0 no effect, 100 complete control), read-out: Cocklebur plant response rating"}, "[18]": {"details": "post-emergence, Postemergence, scale 0 to 100, read-out: Plant response rating, Cocklebur"}, "[19]": {"details": "pre-emergence, Preemergence, scale 0 to 100, read-out: Plant response rating, Cocklebur"}}, "note": "Read-outs that look alike come from different tables or passages of the source.", "data": [{"smiles": "CCOC(=O)c1nc(C2CC2)nc(N)c1Br", "note": "[Compound 1, ethyl 6-amino-5-bromo-2-cyclopropyl-4-pyrimidinecarboxylate]", "values": [{"measurement": "pest or weed control at 62 g/ha", "setting": "[1]; post-emergence, Postemergence, scale 0 to 100 (0 no effect, 100 complete control), read-out: Bermudagrass plant response rating", "result": 70, "unit": "%"}, {"measurement": "pest or weed control at 125 g/ha", "setting": "[1]; [6]", "result": 90, "unit": "%"}, {"measurement": "pest or weed control at 250 g/ha", "setting": "[1]; [6]", "result": 90, "unit": "%"}, {"measurement": "pest or weed control at 500 g/ha", "setting": "[1]; [6]", "result": 90, "unit": "%"}, {"measurement": "pest or weed control at 62 g/ha", "setting": "[1]; pre-emergence, Preemergence, scale 0 to 100, 0 no effect, 100 complete control, read-out: Plant response rating, Bermudagrass", "result": 0, "unit": "%"}, {"measurement": "pest or weed control at 125 g/ha", "setting": "[1]; [7]", "result": 50, "unit": "%"}, {"measurement": "pest or weed control at 250 g/ha", "setting": "[1]; [7]", "result": 70, "unit": "%"}, {"measurement": "pest or weed control at 500 g/ha", "setting": "[1]; [7]", "result": 90, "unit": "%"}, {"measurement": "pest or weed control at 62 g/ha", "setting": "[2]; [8]", "result": 30, "unit": "%"}, {"measurement": "pest or weed control at 125 g/ha", "setting": "[2]; [8]", "result": 30, "unit": "%"}, {"measurement": "pest or weed control at 250 g/ha", "setting": "[2]; [9]", "result": 70, "unit": "%"}, {"measurement": "pest or weed control at 500 g/ha", "setting": "[2]; [9]", "result": 70, "unit": "%"}, {"measurement": "pest or weed control at 62 g/ha", "setting": "[2]; pre-emergence, Preemergence, scale 0 to 100, 0 no effect, 100 complete control, read-out: Plant response rating, Johnsongrass", "result": 0, "unit": "%"}, {"measurement": "pest or weed control at 125 g/ha", "setting": "[2]; [10]", "result": 30, "unit": "%"}, {"measurement": "pest or weed control at 250 g/ha", "setting": "[2]; [10]", "result": 80, "unit": "%"}, {"measurement": "pest or weed control at 500 g/ha", "setting": "[2]; [10]", "result": 90, "unit": "%"}, {"measurement": "pest or weed control at 62 g/ha", "setting": "[3]; [11]", "result": 65, "unit": "%"}, {"measurement": "pest or weed control at 125 g/ha", "setting": "[3]; [11]", "result": 80, "unit": "%"}, {"measurement": "pest or weed control at 250 g/ha", "setting": "[3]; [12]", "result": 90, "unit": "%"}, {"measurement": "pest or weed control at 500 g/ha", "setting": "[3]; [12]", "result": 90, "unit": "%"}, {"measurement": "pest or weed control at 62 g/ha", "setting": "[3]; pre-emergence, Preemergence, scale 0 to 100, 0 no effect, 100 complete control, read-out: Plant response rating, Cupgrass, Woolly", "result": 0, "unit": "%"}, {"measurement": "pest or weed control at 125 g/ha", "setting": "[3]; [13]", "result": 60, "unit": "%"}, {"measurement": "pest or weed control at 250 g/ha", "setting": "[3]; [13]", "result": 90, "unit": "%"}, {"measurement": "pest or weed control at 500 g/ha", "setting": "[3]; [13]", "result": 95, "unit": "%"}, {"measurement": "pest or weed control at 62 g/ha", "setting": "[4]; [14]", "result": 100, "unit": "%"}, {"measurement": "pest or weed control at 125 g/ha", "setting": "[4]; [14]", "result": 100, "unit": "%"}, {"measurement": "pest or weed control at 250 g/ha", "setting": "[4]; [15]", "result": 100, "unit": "%"}, {"measurement": "pest or weed control at 500 g/ha", "setting": "[4]; [15]", "result": 100, "unit": "%"}, {"measurement": "pest or weed control at 62 g/ha", "setting": "[4]; pre-emergence, Preemergence, scale 0 to 100, 0 no effect, 100 complete control, read-out: Plant response rating, Morningglory", "result": 90, "unit": "%"}, {"measurement": "pest or weed control at 125 g/ha", "setting": "[4]; [16]", "result": 100, "unit": "%"}, {"measurement": "pest or weed control at 250 g/ha", "setting": "[4]; [16]", "result": 100, "unit": "%"}, {"measurement": "pest or weed control at 500 g/ha", "setting": "[4]; [16]", "result": 100, "unit": "%"}, {"measurement": "pest or weed control at 62 g/ha", "setting": "[5]; [17]", "result": 90, "unit": "%"}, {"measurement": "pest or weed control at 125 g/ha", "setting": "[5]; [17]", "result": 100, "unit": "%"}, {"measurement": "pest or weed control at 250 g/ha", "setting": "[5]; [18]", "result": 100, "unit": "%"}, {"measurement": "pest or weed control at 500 g/ha", "setting": "[5]; [18]", "result": 100, "unit": "%"}, {"measurement": "pest or weed control at 62 g/ha", "setting": "[5]; pre-emergence, Preemergence, scale 0 to 100, 0 no effect, 100 complete control, read-out: Plant response rating, Cocklebur", "result": 90, "unit": "%"}, {"measurement": "pest or weed control at 125 g/ha", "setting": "[5]; [19]", "result": 100, "unit": "%"}, {"measurement": "pest or weed control at 250 g/ha", "setting": "[5]; [19]", "result": 100, "unit": "%"}, {"measurement": "pest or weed control at 500 g/ha", "setting": "[5]; [19]", "result": 100, "unit": "%"}, {"measurement": "Corn plant response rating (crop injury, 0 = no effect, 100 = complete kill) at 62 g/ha", "setting": "corn (Zea mays); 62 g ai/ha, scale 0 to 100 (0 no effect, 100 complete control), read-out: Corn plant response rating", "result": 10, "unit": "%"}, {"measurement": "Corn plant response rating (crop injury, 0 = no effect, 100 = complete kill) at 125 g/ha", "setting": "corn (Zea mays); 125 g ai/ha, scale 0 to 100 (0 no effect, 100 complete control), read-out: Corn plant response rating", "result": 15, "unit": "%"}, {"measurement": "Corn plant response rating (crop injury, 0 = no effect, 100 = complete kill) at 250 g/ha", "setting": "corn (Zea mays); 250 g ai/ha, scale 0 to 100", "result": 40, "unit": "%"}, {"measurement": "Corn plant response rating (crop injury, 0 = no effect, 100 = complete kill) at 500 g/ha", "setting": "corn (Zea mays); 500 g ai/ha, scale 0 to 100", "result": 45, "unit": "%"}]}]}
